Drawing on the supplement of paper PMC10307832, this text covers relative viability for 7 cell lines.

Common to all, as to test: relative viability (nuclei count vs DMSO), 5 days (fraction); higher = more cells survive
Compound in experiment [1]: N=C1NC(=O)/C(=C/c2ccc(O)cc2)S1 [Mirin] + CC1(C)CCC(c2ccc(Cl)cc2)=C(CN2CCN(c3ccc(C(=O)NS(=O)(=O)c4ccc(N[C@H](CCN5CCOCC5)CSc5ccccc5)c(S(=O)(=O)C(F)(F)F)c4)cc3)CC2)C1 [Navitoclax] (partner 0.5 µM)
In short, it runs like this: (§1)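 Each reported value is a median over duplicate plates. It expresses relative viability: treated-well nuclei count divided by vehicle-well nuclei count. Lung cancer cell lines in 1536-well plates were dosed by pin tool a day after seeding, alone with one drug or with a fixed anchor-drug dose plus five library-drug doses (not always all listed) in √10 steps, and nuclei were counted after 5 days.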

Compound in experiment [2]: CCC1=CN=CN=C1N2CCN(CC2)CC3=NC4=C(N3)C=C(C=C4)C(F)(F)F + CC(=O)Nc1cccc(-n2c(=O)n(C3CC3)c(=O)c3c(Nc4ccc(I)cc4F)n(C)c(=O)c(C)c32)c1 [Trametinib] (partner 0.02 µM)
The essentials: as §1

Compound in experiment [3]: N=C1NC(=O)/C(=C/c2ccc(O)cc2)S1 [Mirin] + N=C(N)NC(=N)NCCc1ccccc1 [Phenformin] (partner 250 µM)
The essentials:
as §1

Compound in experiment [4]: N=C1NC(=O)/C(=C/c2ccc(O)cc2)S1 [Mirin] + O=C(c1cc(Cc2n[nH]c(=O)c3ccccc23)ccc1F)N1CCN(C(=O)C2CC2)CC1 [Olaparib] (partner 8 µM)
In short, it runs like this: as §1

In the case of NCI-H596, the relative viability came to 0.966 in experiment [1] (first compound 0.25 µM); 0.855 in experiment [1] (first compound 0.7906 µM); 0.96 in experiment [1] (first compound 2.5 µM); 1.15 in experiment [1] (first compound 7.906 µM); 0.962 in experiment [1] (first compound 25 µM); 0.821 in experiment [2] (first compound 0.04 µM). In addition, the relative viability in experiment [2] (first compound 0.1265 µM) amounted to 0.804; in experiment [2] (first compound 0.4 µM), 0.724; in experiment [2] (first compound 1.265 µM) it was 0.788; in experiment [2] (first compound 4 µM), 0.647; in experiment [3] (first compound 0.25 µM) it was 0.709; in experiment [3] (first compound 0.7906 µM), 0.713. The relative viability in experiment [3] (first compound 2.5 µM) was 0.704; in experiment [3] (first compound 7.906 µM), 0.787; in experiment [3] (first compound 25 µM) it was 0.736; in experiment [4] (first compound 0.25 µM) it was 0.661; in experiment [4] (first compound 0.7906 µM), 0.775; in experiment [4] (first compound 2.5 µM), 0.67. Further, the relative viability stood at 0.745 in experiment [4] (first compound 7.906 µM) and 0.881 in experiment [4] (first compound 25 µM).

As to NCI-H647, the relative viability was 1.05 in experiment [1] (first compound 0.25 µM); 1.06 in experiment [1] (first compound 2.5 µM); 1.11 in experiment [1] (first compound 7.906 µM); 1.08 in experiment [1] (first compound 25 µM); 0.501 in experiment [2] (first compound 0.04 µM); 0.543 in experiment [2] (first compound 0.1265 µM). Further, the relative viability in experiment [2] (first compound 0.4 µM) was found to be 0.469; in experiment [2] (first compound 1.265 µM) it was 0.238; in experiment [2] (first compound 4 µM) it was 0.448; in experiment [3] (first compound 0.25 µM) it was 0.613; in experiment [3] (first compound 0.7906 µM), 0.455; in experiment [3] (first compound 2.5 µM), 0.521. Also, the relative viability in experiment [3] (first compound 7.906 µM) was 0.542; in experiment [3] (first compound 25 µM) it was 0.36; in experiment [4] (first compound 0.25 µM) it was 0.567; in experiment [4] (first compound 0.7906 µM), 0.617; in experiment [4] (first compound 2.5 µM), 0.617; in experiment [4] (first compound 7.906 µM), 0.479. Also, the relative viability in experiment [4] (first compound 25 µM) turned out to be 0.164.

As to NCI-H727, the relative viability worked out at 0.518 in experiment [1] (first compound 0.25 µM); 0.473 in experiment [1] (first compound 0.7906 µM); 0.393 in experiment [1] (first compound 2.5 µM); 0.728 in experiment [1] (first compound 7.906 µM); 0.454 in experiment [1] (first compound 25 µM); 0.346 in experiment [2] (first compound 0.04 µM). The relative viability in experiment [2] (first compound 0.1265 µM) is 0.325; in experiment [2] (first compound 0.4 µM), 0.386; in experiment [2] (first compound 1.265 µM), 0.323; in experiment [2] (first compound 4 µM), 0.379; in experiment [3] (first compound 0.25 µM), 0.828; in experiment [3] (first compound 0.7906 µM), 0.922. Moreover, the relative viability is 0.444 in experiment [3] (first compound 2.5 µM); 0.657 in experiment [3] (first compound 7.906 µM); 0.577 in experiment [3] (first compound 25 µM); 0.728 in experiment [4] (first compound 0.25 µM); 0.6 in experiment [4] (first compound 0.7906 µM); 0.768 in experiment [4] (first compound 2.5 µM). The relative viability in experiment [4] (first compound 7.906 µM) was determined as 0.602; in experiment [4] (first compound 25 µM) it was 0.561.

NCI-H838: the relative viability stood at 1.19 in experiment [1] (first compound 0.25 µM); 1.24 in experiment [1] (first compound 0.7906 µM); 1.31 in experiment [1] (first compound 2.5 µM); 1.19 in experiment [1] (first compound 7.906 µM); 1.11 in experiment [1] (first compound 25 µM); 0.574 in experiment [2] (first compound 0.04 µM). The relative viability came out at 0.481 in experiment [2] (first compound 0.1265 µM); 0.455 in experiment [2] (first compound 0.4 µM); 0.412 in experiment [2] (first compound 1.265 µM); 0.648 in experiment [2] (first compound 4 µM); 0.654 in experiment [3] (first compound 0.25 µM); 0.292 in experiment [3] (first compound 0.7906 µM). The relative viability amounted to 0.634 in experiment [3] (first compound 2.5 µM); 0.626 in experiment [3] (first compound 7.906 µM); 0.468 in experiment [3] (first compound 25 µM); 0.788 in experiment [4] (first compound 0.25 µM); 0.811 in experiment [4] (first compound 0.7906 µM); 0.829 in experiment [4] (first compound 2.5 µM). The relative viability in experiment [4] (first compound 7.906 µM) came out at 0.749; in experiment [4] (first compound 25 µM), 0.529.

NCI-H1355: the relative viability in experiment [1] (first compound 0.25 µM) amounted to 1; in experiment [1] (first compound 0.7906 µM) it was 0.989; in experiment [1] (first compound 2.5 µM) it was 1.07; in experiment [1] (first compound 7.906 µM), 0.897; in experiment [1] (first compound 25 µM), 0.979; in experiment [2] (first compound 0.04 µM), 0.435. Moreover, the relative viability in experiment [2] (first compound 0.1265 µM) turned out to be 0.395; in experiment [2] (first compound 0.4 µM), 0.426; in experiment [2] (first compound 1.265 µM) it was 0.331; in experiment [2] (first compound 4 µM), 0.451; in experiment [3] (first compound 0.25 µM), 0.472; in experiment [3] (first compound 0.7906 µM), 0.463. Besides, the relative viability in experiment [3] (first compound 2.5 µM) came out at 0.456; in experiment [3] (first compound 7.906 µM) it was 0.47; in experiment [3] (first compound 25 µM), 0.521; in experiment [4] (first compound 0.25 µM) it was 0.681; in experiment [4] (first compound 0.7906 µM) it was 0.747; in experiment [4] (first compound 2.5 µM), 0.692. Also, the relative viability came to 0.755 in experiment [4] (first compound 7.906 µM) and 0.745 in experiment [4] (first compound 25 µM).

As for NCI-H1395, the relative viability in experiment [1] (first compound 0.25 µM) stood at 1.24; in experiment [1] (first compound 2.5 µM) it was 1.12; in experiment [1] (first compound 7.906 µM), 1.04; in experiment [1] (first compound 25 µM), 1.09; in experiment [2] (first compound 0.04 µM), 1.05; in experiment [2] (first compound 0.1265 µM) it was 0.993. Also, the relative viability in experiment [2] (first compound 0.4 µM) turned out to be 1.11; in experiment [2] (first compound 4 µM), 0.96; in experiment [3] (first compound 0.25 µM), 0.41; in experiment [3] (first compound 0.7906 µM), 0.421; in experiment [3] (first compound 2.5 µM), 0.435; in experiment [3] (first compound 7.906 µM) it was 0.463. The relative viability was found to be 0.412 in experiment [3] (first compound 25 µM); 0.427 in experiment [4] (first compound 0.25 µM); 0.478 in experiment [4] (first compound 2.5 µM); 0.426 in experiment [4] (first compound 7.906 µM); 0.425 in experiment [4] (first compound 25 µM).

NCI-H1437: the relative viability in experiment [1] (first compound 0.25 µM) turned out to be 1.09; in experiment [1] (first compound 0.7906 µM), 1.09; in experiment [1] (first compound 2.5 µM) it was 1.12; in experiment [1] (first compound 7.906 µM), 1.07; in experiment [1] (first compound 25 µM) it was 1.05; in experiment [2] (first compound 0.04 µM), 0.539. The relative viability in experiment [2] (first compound 0.1265 µM) worked out at 0.42; in experiment [2] (first compound 0.4 µM) it was 0.421; in experiment [2] (first compound 1.265 µM) it was 0.423; in experiment [2] (first compound 4 µM) it was 0.438; in experiment [3] (first compound 0.25 µM), 0.31; in experiment [3] (first compound 0.7906 µM), 0.333. The relative viability is 0.318 in experiment [3] (first compound 2.5 µM); 0.3 in experiment [3] (first compound 7.906 µM); 0.309 in experiment [3] (first compound 25 µM); 0.637 in experiment [4] (first compound 0.25 µM); 0.641 in experiment [4] (first compound 0.7906 µM); 0.607 in experiment [4] (first compound 2.5 µM). For the same cell line, the values for the relative viability in experiment [4] (first compound 7.906 µM) and in experiment [4] (first compound 25 µM) were 0.625 and 0.549, respectively.
